In PubChem BioAssay (NCI):
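Cultured in 96-well plates, cells were exposed to test compound for 48 hours across five concentrations. At the TGI there is no net growth.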

Experiments:
Test in all cases: NCI-60 cell line screen, 48 h
A498 renal = system: A498 renal
OVCAR-8 ovarian = system: OVCAR-8 ovarian
NCI-H226 lung = system: NCI-H226 lung
HCT-15 colon = system: HCT-15 colon
LXFL 529 NSCLC = system: LXFL 529 NSCLC
ACHN renal = system: ACHN renal
HT29 colon = system: HT29 colon
SK-MEL-5 melanoma = system: SK-MEL-5 melanoma
RXF 393 renal = system: RXF 393 renal
SNB-75 CNS = system: SNB-75 CNS
U251 CNS = system: U251 CNS
UACC-257 melanoma = system: UACC-257 melanoma
MALME-3M melanoma = system: MALME-3M melanoma
KM20L2 colon = system: KM20L2 colon
SF-268 CNS = system: SF-268 CNS
OVCAR-4 ovarian = system: OVCAR-4 ovarian
KM12 colon = system: KM12 colon
NCI-H522 lung = system: NCI-H522 lung
HCC-2998 colon = system: HCC-2998 colon
OVCAR-5 ovarian = system: OVCAR-5 ovarian
COLO 205 colon = system: COLO 205 colon
SR leukemia = system: SR leukemia
EKVX NSCLC = system: EKVX NSCLC
DLD-1 colon = system: DLD-1 colon
SK-MEL-28 melanoma = system: SK-MEL-28 melanoma
NCI-H460 lung = system: NCI-H460 lung
SF-295 CNS = system: SF-295 CNS
TK-10 renal = system: TK-10 renal
SK-MEL-2 melanoma = system: SK-MEL-2 melanoma
HOP-18 NSCLC = system: HOP-18 NSCLC
RPMI-8226 leukemia = system: RPMI-8226 leukemia
IGROV1 ovarian = system: IGROV1 ovarian
NCI-H23 lung = system: NCI-H23 lung
CAKI-1 renal = system: CAKI-1 renal
M14 melanoma = system: M14 melanoma
A549 NSCLC = system: A549 NSCLC
SNB-19 CNS = system: SNB-19 CNS
DMS 114 small cell lung = system: DMS 114 small cell lung
OVCAR-3 ovarian = system: OVCAR-3 ovarian
DMS 273 small cell lung = system: DMS 273 small cell lung
SW-620 colon = system: SW-620 colon
HCT-116 colon = system: HCT-116 colon
MOLT-4 leukemia = system: MOLT-4 leukemia
786-0 renal = system: 786-0 renal
HOP-62 NSCLC = system: HOP-62 NSCLC
SF-539 CNS = system: SF-539 CNS
SN12C renal = system: SN12C renal
UO-31 renal = system: UO-31 renal
RXF-631 renal = system: RXF-631 renal
K-562 leukemia = system: K-562 leukemia
LOX IMVI melanoma = system: LOX IMVI melanoma
UACC-62 melanoma = system: UACC-62 melanoma

O=C1c2ccccc2C(=O)c2nc3c(O)cccc3cc21
TGI (A498 renal): 64.2 µM | TGI (OVCAR-8 ovarian): > 100 µM | TGI (NCI-H226 lung): > 100 µM | TGI (HCT-15 colon): > 100 µM | TGI (LXFL 529 NSCLC): > 100 µM | TGI (ACHN renal): > 100 µM | TGI (HT29 colon): 52.9 µM | TGI (SK-MEL-5 melanoma): 18.5 µM | TGI (RXF 393 renal): > 100 µM | TGI (SNB-75 CNS): > 100 µM | TGI (U251 CNS): > 100 µM | TGI (UACC-257 melanoma): 32.4 µM | TGI (MALME-3M melanoma): > 100 µM | TGI (KM20L2 colon): > 100 µM | TGI (SF-268 CNS): > 100 µM | TGI (OVCAR-4 ovarian): > 100 µM | TGI (KM12 colon): > 100 µM | TGI (NCI-H522 lung): 72.2 µM | TGI (HCC-2998 colon): > 100 µM | TGI (OVCAR-5 ovarian): > 100 µM | TGI (COLO 205 colon): > 100 µM | TGI (SR leukemia): > 100 µM | TGI (EKVX NSCLC): > 100 µM | TGI (DLD-1 colon): > 100 µM | TGI (SK-MEL-28 melanoma): > 100 µM | TGI (NCI-H460 lung): > 100 µM | TGI (SF-295 CNS): 74.1 µM | TGI (TK-10 renal): > 100 µM | TGI (SK-MEL-2 melanoma): > 100 µM | TGI (HOP-18 NSCLC): > 100 µM | TGI (RPMI-8226 leukemia): > 100 µM | TGI (IGROV1 ovarian): > 100 µM | TGI (NCI-H23 lung): > 100 µM | TGI (CAKI-1 renal): > 100 µM | TGI (M14 melanoma): 27.9 µM | TGI (A549 NSCLC): > 100 µM | TGI (SNB-19 CNS): > 100 µM | TGI (DMS 114 small cell lung): 20.7 µM | TGI (OVCAR-3 ovarian): 4.98 µM | TGI (DMS 273 small cell lung): > 100 µM | TGI (SW-620 colon): > 100 µM | TGI (HCT-116 colon): 19.4 µM | TGI (MOLT-4 leukemia): 23 µM | TGI (786-0 renal): > 100 µM | TGI (HOP-62 NSCLC): > 100 µM | TGI (SF-539 CNS): > 100 µM | TGI (SN12C renal): > 100 µM | TGI (UO-31 renal): > 100 µM | TGI (RXF-631 renal): > 100 µM | TGI (K-562 leukemia): > 100 µM | TGI (LOX IMVI melanoma): > 100 µM | TGI (UACC-62 melanoma): > 100 µM
